Measured values taken from US20140073639A1 (priority 2012, published 2014).

How the values were obtained:
B. Anthracis = assay: microbe, parasite or virus in culture; assay type: cell-based; conditions: for inhibition at 10 µM / inhibition at 30 µM / inhibition at 3 µM: Bacillus anthracis; for inhibition at 10 µM: read-out: B. Anthracis 10 μM (growth inhibition); for inhibition at 30 µM: read-out: B. Anthracis 30 μM (growth inhibition); for inhibition at 3 µM: read-out: B. Anthracis 3 μM (growth inhibition)
S. MRSA = assay: microbe, parasite or virus in culture; assay type: cell-based; conditions: for inhibition at 10 µM / inhibition at 30 µM / inhibition at 3 µM: Staphylococcus aureus, MRSA; for inhibition at 10 µM: read-out: S. MRSA 10 μM (growth inhibition); for inhibition at 30 µM: read-out: S. MRSA 30 μM (growth inhibition); for inhibition at 3 µM: read-out: S. MRSA 3 μM (growth inhibition)

Row | Compound | inhibition at 10 µM (B. Anthracis) | inhibition at 30 µM (B. Anthracis) | inhibition at 10 µM (S. MRSA) | inhibition at 30 µM (S. MRSA) | B. Anthracis 10 μM (growth inhibition) (B. Anthracis) | S. MRSA 10 μM (growth inhibition) (S. MRSA) | S. MRSA 30 μM (growth inhibition) (S. MRSA) | inhibition at 3 µM (B. Anthracis) | inhibition at 3 µM (S. MRSA) | B. Anthracis 30 μM (growth inhibition) (B. Anthracis)
1 | O=C1NC(=S)NC(=O)C1=Cc1ccc(Br)s1 [Cmpd 1] | -12.4% | 8.74% | 6.62% | 22.1% | – | – | – | – | – | –
2 | O=C1NC(=S)S/C1=C/c1ccc(-c2ccc3c(c2)C(=O)NC3=O)o1 [Cmpd 3] | 13.7% | 87.5% | -0.59% | 61.2% | – | – | – | – | – | –
3 | O=C(O)CCCCCN1C(=O)/C(=C2/C(=O)Nc3ccc(Br)cc32)SC1=S [Cmpd 4] | 52.3% | 91.2% | 41.6% | 69.4% | – | – | – | – | – | –
4 | CC(C)C(C(=O)O)N1C(=O)/C(=C2/C(=O)Nc3ccccc32)SC1=S (centres unmarked) [Cmpd 5] | – | 11.2% | 15.9% | 40.6% | −1.33 | – | – | – | – | –
5 | O=C1Nc2ccccc2/C1=C1/SC(=S)N(C(Cc2ccccc2)C(=O)O)C1=O (centres unmarked) [Cmpd 6] | 19.6% | 92.6% | 45.7% | 47.8% | – | – | – | – | – | –
6 | COc1ccc(-c2nnc(-c3ccccc3)o2)cc1S(=O)(=O)Nc1cc2c(cc1C#N)OCO2 [Cmpd 7] | 19.6% | 74.9% | -7.79% | -1.62% | – | – | – | – | – | –
7 | COc1ccc(-c2nc(N3CCOCC3)c3sc(=O)n(-c4ccccc4)c3n2)cc1OC [Cmpd 8] | 5.32% | 35.5% | -8.82% | 1.47% | – | – | – | – | – | –
8 | O=C1NC(=S)NC(=O)C1=Cc1ccc(-c2ccc(Br)c(Cl)c2)o1 [Cmpd 9] | 28% | 88.4% | 19% | -4.22% | – | – | – | – | – | –
9 | O=C1NC(=O)N(Cc2ccc(F)cc2)C(=O)/C1=C/c1ccc(Br)s1 [Cmpd 10] | 10.3% | 68.2% | 14.8% | 62.2% | – | – | – | – | – | –
10 | COc1ccc(N2C(=O)/C(=C/c3ccc(Br)s3)C(=O)NC2=S)cc1 [Cmpd 11] | 16.2% | 47.3% | 14.8% | 42.6% | – | – | – | – | – | –
11 | O=C1Nc2ccc(Br)cc2/C1=C1/SC(=S)N(C(Cc2ccccc2)C(=O)O)C1=O (centres unmarked) [Cmpd 13] | – | 90.1% | – | – | 10.27 | −0.58 | 30.29 | – | – | –
12 | O=C1NC(=S)NC(=O)C1=Cc1ccc(-c2cccc(Cl)c2)o1 [Cmpd 14] | 3.62% | 27.2% | 7.65% | 47.8% | – | – | – | – | – | –
13 | O=C1NC(=S)NC(=O)C1=Cc1ccc(-c2ccc(Cl)cc2)o1 [Cmpd 15] | 3.62% | 42.2% | 20% | 63.2% | – | – | – | – | – | –
14 | O=C1NC(=S)NC(=O)C1=Cc1ccc(Br)cc1 [Cmpd 16] | 0% | 0% | 12% | 8.76% | – | – | – | 0% | 13.6% | –
15 | CC(C)C(C(=O)O)N1C(=O)/C(=C2/C(=O)Nc3ccccc32)SC1=S (centres unmarked) [Cmpd 17] | – | – | – | – | −2.28 | 14.85 | 46.76 | – | – | 7.03
16 | O=C1NC(=O)C(=Cc2ccc(Br)s2)C(=O)N1 [Cmpd 18] | 0% | 0% | 15.2% | 18.4% | – | – | – | 0% | 13.6% | –
17 | O=C1NC(=O)C(=Cc2ccc(Br)o2)C(=O)N1 [Cmpd 19] | 10.7% | 12.9% | 2% | 12.6% | – | – | – | 3.33% | -1.4% | –
18 | O=C1NC(=S)NC(=O)C1=Cc1ccc(-c2ccc(F)cc2)o1 [Cmpd 20] | 17.1% | 28.7% | 25.1% | 56% | – | – | – | – | – | –
19 | O=C(O)CC(C(=O)O)N1C(=O)/C(=C2/C(=O)Nc3ccc(Br)cc32)SC1=S (centres unmarked) [Cmpd 21] | 13.1% | 14.2% | -2.11% | -2.11% | – | – | – | 15.8% | -6.99% | –
20 | O=C1Nc2ccc(Br)cc2/C1=C1/SC(=S)N(C(Cc2ccccc2)C(=O)O)C1=O (centres unmarked) [Cmpd 22] | – | – | – | – | 83.27 | 10.74 | 86.76 | – | – | 90.11

Row | Compound | inhibition at 10 µM (B. Anthracis) | inhibition at 30 µM (B. Anthracis) | inhibition at 10 µM (S. MRSA) | inhibition at 30 µM (S. MRSA) | B. Anthracis 10 μM (growth inhibition) (B. Anthracis) | S. MRSA 10 μM (growth inhibition) (S. MRSA) | S. MRSA 30 μM (growth inhibition) (S. MRSA) | inhibition at 3 µM (B. Anthracis) | inhibition at 3 µM (S. MRSA) | B. Anthracis 30 μM (growth inhibition) (B. Anthracis)
21 | CN1C(=O)C(Cc2ccc(-c3ccc(Cl)c(Cl)c3)o2)C(=O)N(C)C1=O [Cmpd 23] | 1.54% | 10.7% | -7.35% | 0% | – | – | – | -8.49% | -8.09% | –
22 | CCc1ccccc1N1C(=O)/C(=C/c2ccc(-c3cc(C(=O)O)ccc3Cl)o2)C(=O)NC1=S [Cmpd 24] | -4.63% | -10.8% | 2.2% | -5.88% | – | – | – | -10.8% | -2.94% | –
23 | O=C1NC(=S)N(c2cccc(Cl)c2)C(=O)/C1=C/c1ccc(-c2cc(C(=O)O)ccc2Cl)o1 [Cmpd 25] | -3.09% | -3.09% | -4.41% | -5.15% | – | – | – | -10.8% | -2.21% | –
24 | O=C1NC(=S)N(c2ccc(Cl)cc2)C(=O)/C1=C/c1ccc(-c2ccccc2C(=O)O)o1 [Cmpd 26] | 97% | 100% | 16.1% | 92.4% | – | – | – | 2.32% | 1.47% | –
25 | CCOc1cccc(N2C(=O)/C(=C/c3ccc(-c4cc(C(=O)O)ccc4Cl)o3)C(=O)NC2=S)c1 [Cmpd 27] | 0% | -11.6% | 8.82% | -0.74% | – | – | – | -9.26% | 0.74% | –
26 | O=C1NC(=S)NC(=O)C1=Cc1ccc(-c2cccc(C(=O)O)c2)o1 [Cmpd 28] | -3.09% | -13.1% | -2.21% | -3.68% | – | – | – | -9.26% | -0.74% | –
27 | CN1C(=O)/C(=C/c2ccc(-c3ccc(Br)c(Cl)c3)o2)C(=O)NC1=S [Cmpd 29] | 80% | 90.1% | 52.9% | 86.8% | – | – | – | – | – | –
28 | CCN1C(=O)NC(=O)/C(=C\c2ccc(-c3ccc(Cl)c(C(=O)O)c3)o2)C1=O [Cmpd 30] | 1% | -11.6% | -2.94% | -4.41% | – | – | – | -8.49% | 1.47% | –
29 | COc1ccc(-c2ccc(/C=C3/NC(=S)N(C(Cc4ccccc4)C(=O)O)C3=O)s2)cc1 (centres unmarked) [Cmpd 33] | 0% | 100% | -13.2% | 18.5% | – | – | – | -3.85% | -2.94% | –
30 | O=C(O)C(Cc1ccccc1)N1C(=O)/C(=C\c2ccc(-c3ccc(F)cc3)s2)NC1=S (centres unmarked) [Cmpd 34] | 6.99% | 98.8% | -24.8% | 46.2% | – | – | – | 0% | -15.8% | –
31 | O=C(O)C(Cc1ccccc1)N1C(=O)/C(=C\c2ccc(-c3ccc(Cl)cc3)s2)NC1=S (centres unmarked) [Cmpd 35] | 100% | 100% | -1.47% | 91% | – | – | – | -5.4% | -2.94% | –
32 | O=C(O)C(Cc1ccccc1)N1C(=O)/C(=C\c2ccc(-c3ccc(Br)cc3)s2)NC1=S (centres unmarked) [Cmpd 36] | 97.7% | 96.7% | 91.1% | 91.1% | – | – | – | 76.9% | -19.2% | –
33 | O=C(O)C(Cc1ccccc1)N1C(=O)/C(=C\c2ccc(Br)s2)NC1=S (centres unmarked) [Cmpd 37] | – | 0% | – | -6.27% | – | – | – | – | – | –
34 | O=C(O)C(Cc1ccccc1)N1C(=O)/C(=C\c2ccc(-c3ccc(Br)cc3)o2)NC1=S (centres unmarked) [Cmpd 39] | 98.8% | 98.8% | 92.5% | 95.4% | – | – | – | 72.6% | -9.55% | –
35 | O=C(O)C(Cc1ccccc1)N1C(=O)/C(=C\c2ccc(-c3ccc(Br)c(Cl)c3)o2)NC1=S (centres unmarked) [Cmpd 40] | 98.1% | 98.1% | 95.7% | 95.7% | – | – | – | 98.1% | 17.9% | –
36 | O=C(O)C(Cc1ccccc1)N1C(=O)/C(=C\c2ccc(-c3ccc(Br)c(Cl)c3)s2)NC1=S (centres unmarked) [Cmpd 41] | 8.15% | 94.5% | -7.45% | -0.89% | – | – | – | 19.5% | – | –
37 | O=C(O)C(Cc1ccccc1)N1C(=O)/C(=C\c2ccc(-c3ccc(Cl)c(Cl)c3)o2)NC1=S (centres unmarked) [Cmpd 42] | 99.5% | 96.7% | 98.7% | 94.5% | – | – | – | 96.2% | – | –
38 | O=C(O)C(Cc1ccccc1)N1C(=O)/C(=C\c2ccc(-c3ccc(OC(F)(F)F)cc3)o2)NC1=S (centres unmarked) [Cmpd 43] | 96.7% | 96.6% | -6.26% | 95.2% | – | – | – | 8.01% | -1.32% | –
39 | O=C(O)C(Cc1ccccc1)N1C(=O)/C(=C\c2ccc(-c3ccc(I)cc3)o2)NC1=S (centres unmarked) [Cmpd 45] | 97.4% | 96.4% | 88.2% | 92.7% | – | – | – | 49.2% | -1.84% | –
